Legend:
human CSNK1D = human CSNK1D (Homo sapiens (Human), UniProt P48730); assay: CSNK1D assay (ADP-Glo, 1 μM ATP); assay type: biochemical; conditions: median, Table 2, read-out: CSNK1D IC50 [mol/l] (median)
Protocol: CSNK1D-inhibitory activity of compounds of the present invention in presence of 1 μM adenosine-tri-phosphate (ATP) was quantified employing the CSNK1D assay as described in the following paragraphs. In essence, the enzyme activity is measured by quantification of the adenosine-di-phosphate (ADP), which is generated as a co-product of the enzyme reaction, via the “ADP-Glo™ Kinase Assay” kit from the company Promega. This detection system works as follows: In a first step the ATP not consumed in the kinase reaction is quantitatively converted to cAMP employing an adenylate cyclase (“ADP-Glo-reagent”), then the adenylate cyclase is stopped and the ADP generated in the kinase reaction converted to ATP which generates in a luciferase-based reaction a glow-luminescence signal (“Kinase Detection Reagent”).
(§1) Recombinant fusion protein of N-terminal Glutathion-S-Transferase (GST) and full-length human CSNK1D, expressed by baculovirus infected insect cells and purified via Glutathion affinity chromatography, was purchased from Life Technologies (product no. PV3665) and used as enzyme. As substrate for the kinase reaction the biotinylated peptide Btn-Ahx-SGSEGDSESGEEEG (C-terminus in amide form) was used which can be purchased e.g. from the company Biosyntan (Berlin-Buch, Germany).
For the assay 50 nl of a 100 fold concentrated solution of the test compound in DMSO was pipetted into a white 1536-well microtiter plate (Greiner Bio-One, Frickenhausen, Germany), 2 μL of a solution of CSNK1D in aqueous assay buffer [50 mM HEPES pH 7.5, 10% (v/v) glycerol, 10 mM MgCl2, 50 mM NaCl, 1 mM dithiothreitol, 0.01% (w/v) bovine serum albumin, 0.01% (v/v) Triton X-100] were added and the mixture was incubated for 15 min at 22° C. to allow pre-binding of the test compounds to the enzyme before the start of the kinase reaction. Then the kinase reaction was started by the addition of 3 μL of a solution of ATP (1.67 μM=>final conc. in the 5 μL assay volume is 1 μM) and peptide substrate (50 μM=>final conc. in the 5 μL assay volume is 30 μM) in assay buffer and the resulting mixture was incubated for a reaction time of 30 min at 22° C. The concentration of CSNK1D was adjusted depending of the activity of the enzyme lot and was chosen appropriate to have the assay in the linear range, a typical concentration is about 0.5 ng/μL. The reaction was stopped by the addition of 2.5 μL of “ADP-Glo-reagent” (1:1.5 fold diluted with water) and the resulting mixture was incubated at 22° C. for 1 h to convert the ATP not consumed in the kinase reaction completely […]. Subsequently 2.5 μL of the “kinase detection reagent” (1.2 fold more concentrated than recommended by the producer) were added, the resulting mixture was incubated at 22° C. for 1 h and then the luminescence measured with a suitable measurement instrument (e.g. Viewlux™ from Perkin-Elmer). The amount of emitted light was taken as a measure for the amount of ADP generated and thereby for the activity of the CSNK1D.
(§2) The data were normalised (enzyme reaction without inhibitor=0% inhibition, all other assay components but no enzyme=100% inhibition).

human CSNK1A1 = human CSNK1A1 (Homo sapiens (Human), UniProt P48729); assay: CSNK1A1 Assay 2 (ADP-Glo, 1 μM ATP); assay type: biochemical; conditions: median, Table 2, read-out: CSNK1A1 Assay 2 IC50 [mol/l] (median)
Protocol: CSNK1A1-inhibitory activity of compounds of the present invention in presence of 1 μM adenosine-tri-phosphate (ATP) was quantified employing the CSNK1A1 assay as described in the following paragraphs. In essence, the enzyme activity is measured by quantification of the adenosine-di-phosphate (ADP), which is generated as a co-product of the enzyme reaction, via the “ADP-Glo™ Kinase Assay” kit from the company Promega. This detection system works as follows: In a first step the ATP not consumed in the kinase reaction is quantitatively converted to cAMP employing an adenylate cyclase (“ADP-Glo-reagent”), then the adenylate cyclase is stopped and the ADP generated in the kinase reaction converted to ATP which generates in a luciferase-based reaction a glow-luminescence signal (“Kinase Detection Reagent”).
as §1, with “CSNK1A1,” for “CSNK1D,”, “PV4174)” for “PV3665)”, “biotin-Ahx-KRRRAL-pS-VASLPGL” for “Btn-Ahx-SGSEGDSESGEEEG”
For the assay 50 nl of a 100 fold concentrated solution of the test compound in DMSO was pipetted into a white 1536-well microtiter plate (Greiner Bio-One, Frickenhausen, Germany), 2 μL of a solution of CSNK1A1 in aqueous assay buffer [50 mM HEPES pH 7.5, 10% (v/v) glycerol, 10 mM MgCl2, 50 mM NaCl, 1 mM dithiothreitol, 0.01% (w/v) bovine serum albumin, 0.01% (v/v) Triton X-100] were added and the mixture was incubated for 15 min at 22° C. to allow pre-binding of the test compounds to the enzyme before the start of the kinase reaction. Then the kinase reaction was started by the addition of 3 μL of a solution of ATP (1.67 μM=>final conc. in the 5 μL assay volume is 1 μM) and peptide substrate (50 μM=>final conc. in the 5 μL assay volume is 30 μM) in assay buffer and the resulting mixture was incubated for a reaction time of 30 min at 22° C. The concentration of CSNK1A1 was adjusted depending of the activity of the enzyme lot and was chosen appropriate to have the assay in the linear range, a typical concentrations are about 0.0375 ng/μL. The reaction was stopped by the addition of 2.5 μL of “ADP-Glo-reagent” (1:1.5 fold diluted with water) and the resulting mixture was incubated at 22° C. for 1 h to convert the ATP not consumed in the kinase reaction completely […]. Subsequently 2.5 μL of the “kinase detection reagent” (1.2 fold more concentrated than recommended by the producer) were added, the resulting mixture was incubated at 22° C. for 1 h and then the luminescence measured with a suitable measurement instrument (e.g. Viewlux™ from Perkin-Elmer). The amount of emitted light was taken as a measure for the amount of ADP generated and thereby for the activity of the CSNK1A1.
as §2

human CSNK1A1, sequence (P48729 whole entry): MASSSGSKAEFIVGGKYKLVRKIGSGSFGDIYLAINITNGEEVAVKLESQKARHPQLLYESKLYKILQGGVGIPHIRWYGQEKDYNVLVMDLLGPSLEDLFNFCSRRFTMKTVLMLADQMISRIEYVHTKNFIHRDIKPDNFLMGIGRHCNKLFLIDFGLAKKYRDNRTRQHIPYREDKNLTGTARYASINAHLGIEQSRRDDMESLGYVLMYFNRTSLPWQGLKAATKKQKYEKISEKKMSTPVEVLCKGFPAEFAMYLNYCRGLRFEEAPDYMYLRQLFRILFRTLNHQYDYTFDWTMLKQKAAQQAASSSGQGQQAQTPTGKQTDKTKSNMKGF
human CSNK1D, sequence (P48730 whole entry): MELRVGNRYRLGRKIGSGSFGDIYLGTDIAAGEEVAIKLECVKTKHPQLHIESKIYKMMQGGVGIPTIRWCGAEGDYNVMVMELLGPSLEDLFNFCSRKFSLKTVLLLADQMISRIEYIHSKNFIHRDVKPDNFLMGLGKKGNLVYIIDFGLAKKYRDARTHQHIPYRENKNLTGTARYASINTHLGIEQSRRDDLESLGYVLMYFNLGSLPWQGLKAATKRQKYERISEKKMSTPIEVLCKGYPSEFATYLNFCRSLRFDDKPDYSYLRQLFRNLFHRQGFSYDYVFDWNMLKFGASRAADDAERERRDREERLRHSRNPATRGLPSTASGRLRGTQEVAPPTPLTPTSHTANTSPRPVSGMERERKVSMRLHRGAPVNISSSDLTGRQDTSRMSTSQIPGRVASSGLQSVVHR

SMILES | IC50 (human CSNK1D) [nM] | IC50 (human CSNK1A1) [nM]
Cc1cn(C)c(=O)c2c(Nc3ccccc3)c(-c3ccnc(NC(=O)C(C)c4ccc(F)cc4)c3)[nH]c12 (single isomer, unassigned) [Example 40, N-[4-(3-anilino-5,7-dimethyl-4-oxo-4,5-dihydro-1H-pyrrolo[3,2-c]pyridin-2-yl)pyridin-2-yl]-2-(4-fluorophenyl)propanamide] | 19 | 15
CN1CC(CC(F)(F)F)c2[nH]c(-c3ccnc(NC(=O)C(CC(F)F)c4ccc(F)cc4)c3)c(Nc3cscn3)c2C1=O (single isomer, unassigned) [Example 53, (2R or S)-4,4-difluoro-2-(4-fluorophenyl)-N-{4-[(7R or S)-5-methyl-4-oxo-3-[(1,3-thiazol-4-yl)amino]-7-(2,2,2-trifluoroethyl)-4,5,6,7-tetrahydro-1H-pyrrolo[3,2-c]pyridin-2-yl]pyridin-2-yl}butanamide] | 35 | 21
Cn1cc(CC(F)(F)F)c2[nH]c(-c3ccnc(NC(=O)C(CC(F)F)c4ccc(F)cc4)c3)c(Nc3ccccc3)c2c1=O (single isomer, unassigned) [Example 36, N-{4-[3-anilino-5-methyl-4-oxo-7-(2,2,2-trifluoroethyl)-4,5-dihydro-1H-pyrrolo[3,2-c]pyridin-2-yl]pyridin-2-yl}-4,4-difluoro-2-(4-fluorophenyl)butanamide] | 7.6 | 6.2
CC1CN(C)C(=O)c2c1[nH]c(-c1ccnc(NC(=O)Cc3ccc(F)cc3)c1)c2Nc1ccccc1 (single isomer, unassigned; (+)) [Example 8, (+)-N-{4-[3-anilino-5,7-dimethyl-4-oxo-4,5,6,7-tetrahydro-1H-pyrrolo[3,2-c]pyridin-2-yl]pyridin-2-yl}-2-(4-fluorophenyl)acetamide] | 26 | 12
CN1CC(CC(F)F)c2[nH]c(-c3ccnc(NC(=O)Cc4ccc(F)cc4)c3)c(Nc3ccccc3)c2C1=O (racemic) [Example 42, N-{4-[3-anilino-7-(2,2-difluoroethyl)-5-methyl-4-oxo-4,5,6,7-tetrahydro-1H-pyrrolo[3,2-c]pyridin-2-yl]pyridin-2-yl}-2-(4-fluorophenyl)acetamide] | 4.1 | 1.8
CN1CC(CC(F)(F)F)c2[nH]c(-c3ccnc(NC(=O)C(CC(F)F)c4ccc(F)cc4)c3)c(Nc3cscn3)c2C1=O (racemic) [Example 52, (2RS)-4,4-difluoro-2-(4-fluorophenyl)-N-{4-[(7RS)-5-methyl-4-oxo-3-[(1,3-thiazol-4-yl)amino]-7-(2,2,2-trifluoroethyl)-4,5,6,7-tetrahydro-1H-pyrrolo[3,2-c]pyridin-2-yl]pyridin-2-yl}butanamide] | 12 | 7.9
CCC1CNC(=O)c2c1[nH]c(-c1ccnc(NC(=O)Cc3ccc(F)cc3)c1)c2Nc1ccccc1 (single isomer, unassigned) [Example 2, N-{4-[3-anilino-7-ethyl-4-oxo-4,5,6,7-tetrahydro-1H-pyrrolo[3,2-c]pyridin-2-yl]pyridin-2-yl}-2-(4-fluorophenyl)acetamide] | 5.2 | 3.3
CN1CC(CC(F)(F)F)c2[nH]c(-c3ccnc(NC(=O)C(CC(F)F)c4ccc(F)cc4)c3)c(Nc3cscn3)c2C1=O (single isomer, unassigned) [Example 56, (2R or S)-4,4-difluoro-2-(4-fluorophenyl)-N-{4-[(7R or S)-5-methyl-4-oxo-3-[(1,3-thiazol-4-yl)amino]-7-(2,2,2-trifluoroethyl)-4,5,6,7-tetrahydro-1H-pyrrolo[3,2-c]pyridin-2-yl]pyridin-2-yl}butanamide] | 13 | 7.7
C[C@H](C(=O)Nc1cc(-c2[nH]c3ccn(C)c(=O)c3c2Nc2ccccc2)ccn1)c1ccc(F)cc1 (single isomer, unassigned) [Example 26] | 22 | 5.9
Cn1ccc2[nH]c(-c3ccnc(NC(=O)C(CC(F)F)c4ccc(F)cc4)c3)c(Nc3ccccc3)c2c1=O (racemic) [Example 28, N-[4-(3-anilino-5-methyl-4-oxo-4,5-dihydro-1H-pyrrolo[3,2-c]pyridin-2-yl)pyridin-2-yl]-4,4-difluoro-2-(4-fluorophenyl)butanamide] | 8.1 | 5.2
CN1CC(CC2CC2)c2[nH]c(-c3ccnc(NC(=O)Cc4ccc(F)cc4)c3)c(Nc3ccccc3)c2C1=O (racemic) [Example 18, N-{4-[3-anilino-7-(cyclopropylmethyl)-5-methyl-4-oxo-4,5,6,7-tetrahydro-1H-pyrrolo[3,2-c]pyridin-2-yl]pyridin-2-yl}-2-(4-fluorophenyl)acetamide] | 12 | 6.6
CN1CC(CC(F)(F)F)c2[nH]c(-c3ccnc(NC(=O)C(CC(F)F)c4ccc(F)cc4)c3)c(Nc3cscn3)c2C1=O (single isomer, unassigned) [Example 55, (2R or S)-4,4-difluoro-2-(4-fluorophenyl)-N-{4-[(7R or S)-5-methyl-4-oxo-3-[(1,3-thiazol-4-yl)amino]-7-(2,2,2-trifluoroethyl)-4,5,6,7-tetrahydro-1H-pyrrolo[3,2-c]pyridin-2-yl]pyridin-2-yl}butanamide] | 110 | 59
O=C1N[C@@H]2CCC[C@@H]2c2[nH]c(-c3ccnc(NC(=O)C(CC(F)F)c4ccc(F)cc4)c3)c(Nc3ccccc3)c21 (single isomer, unassigned; (+)) [Example 25, (+)-(2R or S)—N-{4-[cis-3-anilino-4-oxo-1,4,5,5a,6,7,8,8a-octahydrocyclopenta[b]pyrrolo[2,3-d]pyridin-2-yl]pyridin-2-yl}-4,4-difluoro-2-(4-fluorophenyl)butanamide] | 3.1 | 2.3

Reference: patent US20230365554A1, “SUBSTITUTED PYRROLO-PYRIDINONE DERIVATIVES AND THERAPEUTIC USES THEREOF” (The Broad Institute, Inc., priority 2020, published 2023)
